From patent US20080039531A1, “Compositions, and kits comprising targeted aldehyde or acetal protease inhibitor compounds for treating muscle disorders” (priority 2005, published 2008)
Several values for one entry are separate records, joined by “and”; a condition that tells them apart may be missing. Identical values can stand only once. Like-named read-outs stand apart in the source and are kept apart here. One block for each molecule: values may come before it.

Experiments:
[1] = Conversion of CLA acetal to aldehyde using acid (HPLC); assay type: physicochemical; conditions: 5 mg/mL in water
Description: Solutions of CLA diethyl acetal in water were prepared at a concentration of 5 mg/mL and the pH was adjusted to values shown in Table 8 using concentrated hydrochloric acid. Each solution was incubated at different times at room temperature. Samples were removed at each time point and quenched using basic phosphate buffer, yielding a final pH of 9. The quenched samples were analyzed using an Agilent 1100 HPLC system. The aldehyde was chromatographically separated from the acetal on a C18 reverse-phase HPLC column, using a linear gradient where the starting mobile phase was 0.1% trifluoroacetic acid in a 99:1 water:acetonitrile mixture and the final mobile phase was 0.1% trifluoroacetic acid in a 50:50 water:acetonitrile mixture. The absorbance at 220 nm was monitored, and the area of the peak corresponding to elution of the CLA diethyl acetal was computed.

[2] = Qualitative oral bioavailability of CLA acetal in the rat (plasma); conditions: for Estimated Plasma Concentration of CLA acetal / Estimated Plasma Concentration of CLA aldehyde: rat plasma
[3] = Single-dose oral rat toxicology study of CLA acetal; assay type: in vivo, Sprague Dawley rats; conditions: rats, oral gavage, 250, 1000, 2000 mg/kg, up to 24 hours after dosing
Description: Sprague Dawley rats were administered single doses of CLA acetal by oral gavage at 7-8 weeks of age. Each group received a single oral dose level of CLA acetal, ranging in amount from 0 to 2000 mg/kg. The vehicle consisted of Dulbecco's phosphate-buffered saline.

[4] = Uptake and conversion of CLA acetal in rat gastrocnemius muscle; assay type: in vivo
Description: This experiment was designed to measure the uptake of CLA acetal in rat gastrocnemius muscle and to detect conversion of CLA acetal to CLA as it occurs in rat muscle. […] At different times following administration of drug, each rat was sacrificed, the left and right gastrocnemius muscles were dissected from the rat, and the muscles were frozen by immersion in liquid nitrogen and storage in a −80° C. freezer.
The muscle tissues were thawed and homogenized using a blender.

[5] = rats, various doses
[6] = rats
calpain [7] = conditions: rats, IP, muscle isolated after 2 hours
Description: An initial series of toxicology experiments was performed in rats to assess the effect of CLA at various doses, on animal viability. […] A series of experiments to examine the ability of CLA vs. leupeptin to decrease activated calpain levels and inhibit muscle wasting was conducted. In the experiment shown in Table 4, rats were utilized to assess the effect of IP injection of either leupeptin or CLA into the hind limb muscle on their ability to inhibit calpain activity. To this end, four rats were injected IP with either leupeptin or CLA. After 2 hours, the muscle was isolated, homogenized, and assayed for remaining calpain activity by the standard assay.

calpain [8] = conditions: RD muscle cells
[9] = tested on: rat hind limb muscle (sciatic nerve denervation); conditions: for % loss (muscle atrophy due to denervation): rat
mdx mice = conditions: for Myofiber diameter (Gastrocnemis) / Myofiber diameter, Diaphragm: injected parenterally daily from one to two months
Description: CLA was injected parenterally daily at the indicated concentrations into mdx mice from one to two months. Mdx control mice were injected with saline alone. At two months, the animals were sacrificed and indicated muscles removed, fixed, and stained for myofiber diameter analysis.

porcine kidney calpain 2 = porcine kidney calpain 2 (Sus scrofa, UniProt I3LQD3); test: Enzymatic calpain assay with fluorogenic substrate; assay type: biochemical; conditions: porcine kidney calpain 2, 37° C., 10 mM calcium chloride
Excerpt: The α-carbon stereocenter adjacent to the aldehyde group of CLA can be prepared in a “natural” L or “unnatural” D configuration. It is known however that enolization of such aldehydes can easily occur during synthesis, storage, or administration of such peptide aldehydes to patients, with the result that the α-carbon stereocenter undergoes racemization. To investigate the relative biological activity of the optical isomers of CLA, the pure form of both the L-argininal diethyl […] diethyl acetal forms of CLA were prepared via the method described in Example 11 below using both L and D enantiomers of the […] starting materials. […] Slopes were calculated for the initial phase of each reaction and the ratios of velocities for each compound concentration (Vi) to the uninihibited reaction velocity (V0) were calculated, plotted, and fitted to a rectangular hyperbola using the program Kaleidagraph (Synergy software). […] An increase in enzyme activity appears to occur at intermediate concentrations of the D-isomer (Panel B.). This increase may be due to weak binding at an allosteric site that is not inhibitory the enzyme.

[10] = 45 minutes after single oral gavage of 50 mg/kg CLA acetal acetate salt, single rat
[11] = rat left gastrocnemius, 2 hours after oral 50 mg/kg CLA acetal acetate salt
[12] = rat right gastrocnemius, 6 hours after oral 50 mg/kg CLA acetal acetate salt
[13] = rat right gastrocnemius, 8 hours after oral 50 mg/kg CLA acetal acetate salt, one line per rat, 50 mg/kg

Sequence of porcine kidney calpain 2 (P04574 whole entry): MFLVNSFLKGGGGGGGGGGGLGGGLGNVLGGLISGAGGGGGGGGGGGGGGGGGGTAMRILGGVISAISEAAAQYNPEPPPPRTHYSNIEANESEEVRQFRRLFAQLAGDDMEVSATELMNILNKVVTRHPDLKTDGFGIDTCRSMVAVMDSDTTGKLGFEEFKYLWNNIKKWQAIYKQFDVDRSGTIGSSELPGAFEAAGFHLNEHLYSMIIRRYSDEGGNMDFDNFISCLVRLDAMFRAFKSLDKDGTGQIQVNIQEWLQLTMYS
Sequence of porcine kidney calpain 2 (I3LQD3 entry or part of it): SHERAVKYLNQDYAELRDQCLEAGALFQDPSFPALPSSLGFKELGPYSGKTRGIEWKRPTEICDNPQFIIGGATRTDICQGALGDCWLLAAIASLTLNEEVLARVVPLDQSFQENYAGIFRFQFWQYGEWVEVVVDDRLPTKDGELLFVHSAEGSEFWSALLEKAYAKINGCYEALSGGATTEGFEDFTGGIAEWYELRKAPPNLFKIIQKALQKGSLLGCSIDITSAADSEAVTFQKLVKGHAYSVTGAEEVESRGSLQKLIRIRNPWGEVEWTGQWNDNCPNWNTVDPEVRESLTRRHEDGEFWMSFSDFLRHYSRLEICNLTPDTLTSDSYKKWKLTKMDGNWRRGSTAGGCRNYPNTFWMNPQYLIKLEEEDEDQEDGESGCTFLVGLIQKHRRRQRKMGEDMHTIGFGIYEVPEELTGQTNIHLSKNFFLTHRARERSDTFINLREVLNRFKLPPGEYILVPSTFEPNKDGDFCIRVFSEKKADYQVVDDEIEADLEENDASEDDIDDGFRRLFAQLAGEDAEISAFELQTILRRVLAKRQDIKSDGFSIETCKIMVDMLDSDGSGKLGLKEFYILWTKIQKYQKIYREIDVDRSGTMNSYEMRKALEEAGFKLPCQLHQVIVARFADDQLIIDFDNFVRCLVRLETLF

SMILES: CC(=O)O.CCOC(OCC)[C@H](CCCNC(=N)N)NC(=O)[C@H](CC(C)C)NC(=O)CCC(=O)N[C@H](CC(=O)[O-])C[N+](C)(C)C [CLA acetal, aminocarnityl-succinyl-leucyl-argininal diethyl acetal]
Percent acetal remaining ([1]; pH = 0, room temperature, activation time 0 min): 100.0% | Percent acetal remaining ([1]; pH = 0, room temperature, activation time 5 min): 80.0% | Percent acetal remaining ([1]; pH = 0, room temperature, activation time 15 min): 28.5% | Percent acetal remaining ([1]; pH = 0, room temperature, activation time 30 min): 11.2% | Percent acetal remaining ([1]; pH = 0, room temperature, activation time 45 min): 11.3% | Percent acetal remaining ([1]; pH = 0, room temperature, activation time 60 min): 11.3% | Percent acetal remaining ([1]; pH = 0, room temperature, activation time 90 min): 9.0% | Percent acetal remaining ([1]; pH = 0, room temperature, activation time 120 min): 10.9% | Percent acetal remaining ([1]; pH = 0, room temperature, activation time 240 min): 9.3% | Percent acetal remaining ([1]; pH = 0, room temperature, activation time 1440 min): 9.1% | Percent acetal remaining ([1]; pH = 1.0, room temperature, activation time 0 min): 100.0% | Percent acetal remaining ([1]; pH = 1.0, room temperature, activation time 5 min): 100.6% | Percent acetal remaining ([1]; pH = 1.0, room temperature, activation time 15 min): 97.3% | Percent acetal remaining ([1]; pH = 1.0, room temperature, activation time 30 min): 92.2% | Percent acetal remaining ([1]; pH = 1.0, room temperature, activation time 45 min): 86.9% | Percent acetal remaining ([1]; pH = 1.0, room temperature, activation time 60 min): 81.7% | Percent acetal remaining ([1]; pH = 1.0, room temperature, activation time 90 min): 72.7% | Percent acetal remaining ([1]; pH = 1.0, room temperature, activation time 120 min): 64.8% | Percent acetal remaining ([1]; pH = 1.0, room temperature, activation time 240 min): 42.2% | Percent acetal remaining ([1]; pH = 1.0, room temperature, activation time 1440 min): 6.4% | Estimated Plasma Concentration of CLA acetal [2, 10]: 5,840 ng/mL | Estimated Plasma Concentration of CLA acetal ([2]; 60 minutes after single oral gavage of 50 mg/kg CLA acetal acetate salt, one line per rat, 50 mg/kg): 970 ng/mL and 8240 ng/mL and 51200 ng/mL | oral absorption ([2]; rats, 50 mg/kg oral gavage): absorbed intact | toxicity after single oral dose [3]: No evidence of toxicity | Muscle concentration of prodrug [4, 11]: 37.4 ng per gram | Muscle concentration of prodrug [4, 12]: 9.7 ng per gram | Muscle concentration of prodrug [4, 13]: 10.3 ng per gram and 9.2 ng per gram

SMILES: CC(C)C[C@H](NC(=O)CCC(=O)N[C@H](CC(=O)O)C[N+](C)(C)C)C(=O)N[C@H](C=O)CCCNC(=N)N.Cl.[Cl-] [CLA, aminocarnityl-succinyl-leucyl-argininal]
Estimated Plasma Concentration of CLA aldehyde [2, 10]: <20 ng/mL | Estimated Plasma Concentration of CLA aldehyde ([2]; 60 minutes after single oral gavage of 50 mg/kg CLA acetal acetate salt, one line per rat, listed as CLA aldehyde, 50 mg/kg): <20 ng/mL (2×) and 72 ng/mL | toxic effect on animal viability [5]: No toxic effect | lethality ([6]; intravenous bolus, 500 mg/kg): lethal | maximum tolerated dose ([6]; single intravenous dose): 200 mg/kg | no adverse effect limit (NOAEL) ([6]; single intravenous dose): 100 mg/kg | toxicity ([6]; single intravenous dose, 50 and 100 mg/kg): No toxicity | % inhibition of muscle calpain activity (calpain [7]; 14 μmoles): 48% | % inhibition/μmole (calpain [7]): 3.5% | Fold (effectiveness per μmole relative to leupeptin) (calpain [7]): 13.5 | fold lower IC50 than leupeptin (calpain [8]): approximately 200 fold | % loss (muscle atrophy due to denervation) ([9]; 1.0 mg/kg injected 2x/day for seven days): 5.2 ± 1% | % loss (muscle atrophy due to denervation) ([9]; 3.0 mg/kg injected 2x/day for seven days): <1.0% | % loss (muscle atrophy due to denervation) ([9]; 6.0 mg/kg injected 2x/day for seven days): <1.0% | health / toxic effect in denervation study ([9]; rats, seven days of injections): remained healthy without any apparent negative toxic effect | Muscle concentration of active drug [4, 11]: 124.6 ng per gram | Percent of drug present as the active form [4, 11]: 76.9% | Muscle concentration of active drug [4, 12]: 683.6 ng per gram | Percent of drug present as the active form [4, 12]: 98.6% | Muscle concentration of active drug [4, 13]: 758.4 ng per gram and 330.8 ng per gram | Percent of drug present as the active form [4, 13]: 98.7% and 97.3% | Myofiber diameter (Gastrocnemis) (mdx mice; 5 mg): 28.7 ± 7 mm | Myofiber diameter, Diaphragm (mdx mice; 5 mg): 25.1 ± 7.3 mm | Myofiber diameter (Gastrocnemis) (mdx mice; 10 mg): 30.6 ± 11 mm | Myofiber diameter, Diaphragm (mdx mice; 10 mg): 25.4 ± 7.3 mm | effectiveness relative to leupeptin alone (mdx mice; retention of muscle size): at least five to seven times more effective

IC50 (porcine kidney calpain 2; FIG. 7 Panel B): > 100000 nM
SMILES: CC(C)CC(NC(=O)CCC(=O)NC(CC(=O)[O-])C[N+](C)(C)C)C(=O)NC(C=O)CCCNC(=N)N [D-isomer]

IC50 (porcine kidney calpain 2; FIG. 7 Panel A): 500 to 1000 nM
SMILES: CC(C)CC(NC(=O)CCC(=O)NC(CC(=O)[O-])C[N+](C)(C)C)C(=O)NC(C=O)CCCNC(=N)N [L-isomer of CLA]
